Measurements published in patent EP2489663A1, “Compounds as syk kinase inhibitors” (Almirall, S.A., priority 2011, dated 2012).

Legend:
[1] = molecular target: T1, human full-length Syk (Homo sapiens, UniProt P43405); assay: Syk Enzyme assay - Radioactive filtration kinase assay; type: biochemical; conditions: recombinant human full-length Syk 1 nM, poly-GT substrate, [γ-33P] ATP, 40 min room temperature
T1 construct: Recombinant human full-length Syk was supplied by Millipore; purchased Millipore
Method: Syk Enzyme assay- Radioactive filtration kinase assay
Recombinant human full-length Syk was supplied by Millipore. The activity of Syk kinase was assessed using a radioactive filtration kinase assay.
10 µL of substrate poly-GT (100 µg/mL final) and 4 µl of Syk (1 nM final) in 50 mM Tris-HCl (pH 7.5), 0.1 mM EGTA, 4 mM Mg(CH3COO)2, 0.1 mM Na3VO4, 0.1% (v/v) β-mercaptoethanol, 0.133 mg/mL BSA (bovine serum albumin) were added to 1.5 µl of various concentrations of compound or DMSO vehicle (5% final). The reaction was initiated by the addition of 14.5 µL of 0.36 µCi [γ-^33P] ATP (adenosine tri-phosphate) (10 mCi/ml, PerkinElmer). This was prepared in a half-area NBS plate (Corning) and allowed to stand at room temperature for 40 min.
15 µL of reaction mixture was transferred to a filter plate (Millipore) previously prewetted with a solution of 75 mM phosphoric acid. The reaction was terminated with the addition of 200 µL phosphoric acid. The filter plate was washed three times under vacuum on a vacuum manifold (Millipore cat# MSVMHTS00) at 8" Hg vacuum level with 200 µL phosphoric acid per wash.
30 µL Optiphase™ Supermix (PerkinElmer) was added to each test well and allowed to incubate for at least 1 h before counting. Radioactivity counting was performed in a Wallac MicroBeta®, and the tyrosine phosphorylation activity by Syk was calculated.

[2] = tested on: LAD2 cells; assay: LAD2 cells assay (mast cell degranulation, β-hexosaminidase release); type: cell-based; conditions: Homo sapiens, 0.5 h; biotin-labeled IgE sensitized LAD2 cells, compound 30 min, activated with 125 ng/mL streptavidin 30 min, released β-hexosaminidase
Excerpt: LAD2 is a human mast cell line depending on stem cell factor for its survival, maturation and differentiation. This mast cell line was established by the NIH from bone marrow aspirates from a patient with mast cell sarcoma. LAD2 cells resemble CD34+ - derived human mast cells as they have granules containing tryptase, histamine and β-hexosaminidase. They also express c-kit and FcεRI (Kirshenbaum, et al., Leukemia Research 27: 677-682, 2003).
Sensitization of LAD2 cells
Cells were sensitized (0.2x10^6 cells/mL) in its normal growth factor (Complete StemPro-34 SFM, Gibco 10639-011 containing StemPro-34 nutrient supplement (1/40); glutamine (2 mM) and supplemented with 100 ng/ml SCF) by adding 100 ng/mL of biotin-labeled IgE (USBiological) overnight (16-18 h, 37º, 5% CO2) in a humidified atmosphere (90%).
Compounds were prepared from a 10^-2M stock in 100% DMSO to give seven successive 1/3 dilutions in DMSO. From each concentration, 2 further 1/10 dilutions were prepared in release buffer (137 mM NaCl, 2.70 mM KCI, 0.4 mM NaH2PO4, 5.6 mM (D)-glucose, 1.8 mM CaCl2, 1.3 mM MgSO4, 0.025% BSA). Finally, 5 µl from each diluted concentration were transferred into the assay plate (flat 96-well Nunc). The final compound concentrations tested ranged from 1x10^-5M to 4.12x10^-9M with a final proportion of DMSO in the assay of 0.1%. Control wells were treated with 0.1 % DMSO.
Sensitized LAD2 cells were centrifuged (300 g, 3 min, R.T.) and washed 2 times with release buffer. Cells were resuspended in release buffer and adjusted to a density of 0.2x10^6/mL. 45 µL of the adjusted cells were transfered to the assay plate (∼10,000cells/well) containg 5 µL of the final compound concentrations. LAD2 cells were incubated with the compound for 30 min (37 °C, 5% CO2 90% of humidity) and then activated with 125 ng/mL of streptavidin (Pierce 21125) for 30 min (37°C, 5% CO2, 90% of humidity). After the activation, cells were centrifuged at 1200 g, 10 min, 12 °C and supernatats were removed and transfered to another well for determination of released β-hexosaminidase. Empty wells were filled with 50 µL of release buffer for determination of intracellular β-hexosaminidase. Cells were lysed with 2 cycles of freeze-thaw.
Cells were incubated for 90 minutes, 37 °C with 1 mM β-hexosaminidase substrate (p-nitrophenyl N-acetyl-D-glucosamide, in citric buffer, pH 4.5). Reaction was stopped with 0.4 M glycine solution (pH 10.0) and the plate is read immediately at 405 nm.

IC50 [1] | SMILES | IC50 [2]
7.4 nM | c1ccc2c(c1)c(Nc1cnccn1)nn2-c1ccnc(N2C[C@@H]3C[C@H]2CN3)c1 [Example 10, 1-{2-[(1S,4S)-2,5-Diazabicyclo[2.2.1]hept-2-yl]pyridin-4-yl}-N-pyrazin-2-yl-1H-indazol-3-amine] | 55 nM
2.5 nM | Nc1ccc2c(Nc3cnccn3)nn(-c3ccnc(N4C[C@@H]5C[C@H]4CN5)c3)c2c1 [Example 12, 1-{2-[(1S,4S)-2,5-Diazabicyclo[2.2.1]hept-2-yl]pyridin-4-yl}-N^3-pyrazin-2-yl-1H-indazole-3,6-diamine] | 167 nM
20 nM | O=S(=O)(Nc1ccc2c(Nc3cnccn3)nn(-c3ccnc(N4C[C@@H]5C[C@H]4CN5)c3)c2c1)c1ccccc1 [Example 30, N-[1-{2-[(1S,4S)-2,5-Diazabicyclo[2.2.1]hept-2-yl]pyridin-4-yl}-3-(pyrazin-2-ylamino)-1H-indazol-6-yl]benzenesulfonamide] | 
8 nM | COc1ccc2c(Nc3cnccn3)nn(-c3ccnc(N4C[C@@H]5C[C@H]4CN5)c3)c2c1 [Example 31, 1-{2-[(1S,4S)-2,5-Diazabicyclo[2.2.1]hept-2-yl]pyridin-4-yl}-6-methoxy-N-pyrazin-2-yl-1H-indazol-3-amine] | 111 nM
6 nM | Cc1ccc2c(Nc3cnccn3)nn(-c3ccnc(N4C[C@@H]5C[C@H]4CN5)c3)c2c1 [Example 55, 1-{2-[(1S,4S)-2,5-Diazabicyclo[2.2.1]hept-2-yl]pyridin-4-yl}-6-methyl-N-pyrazin-2-yl-1H-indazol-3-amine] | 142 nM
4 nM | c1cnc(Nc2nn(-c3ccnc(N4C[C@@H]5C[C@H]4CN5)c3)c3cc(C4CC4)ccc23)cn1 [Example 58, 6-cyclopropyl-1-{2-[(1S,4S)-2,5-diazabicyclo[2.2.1]hept-2-yl]pyridin-4-yl}-N-pyrazin-2-yl-1H-indazol-3-amine] | 266 nM
12 nM | COCCOc1ccc2c(Nc3cnccn3)nn(-c3ccnc(N4C[C@@H]5C[C@H]4CN5)c3)c2c1 [Example 61, 1-{2-[(1S,4S)-2,5-diazabicyclo[2.2.1]hept-2-yl]pyridin-4-yl}-6-(2-methoxyethoxy)-N-pyrazin-2-yl-1H-indazol-3-amine] | 136 nM
13 nM | c1ccc2c(c1)c(Nc1cnccn1)nn2-c1cc(N2C[C@@H]3C[C@H]2CN3)ccn1 [Example 69, 1-{4-[(1S,4S)-2,5-Diazabicyclo[2.2.1]hept-2-yl]pyridin-2-yl}-N-pyrazin-2-yl-1H-indazol-3-amine] | 263 nM

Second part, the compound before the results:

SMILES | IC50 [1] | IC50 [2]
c1ccc2c(c1)c(Nc1cnccn1)nn2-c1ccnc(N2CCCNCC2)c1 [Example 8, 1-[2-(1,4-Diazepan-1-yl)pyridin-4-yl]-N-pyrazin-2-yl-1H-indazol-3-amine] | 17 nM | 
O=C(c1ccc2c(Nc3cnccn3)nn(-c3ccnc(N4C[C@@H]5C[C@H]4CN5)c3)c2c1)N1CCCCC1 [Example 21, 1-{2-[(1S,4S)-2,5-Diazabicyclo[2.2.1]hept-2-yl]pyridin-4-yl}-6-(piperidin-1-ylcarbonyl)-N-pyrazin-2-yl-1H-indazol-3-amine] | 10.5 nM | 342 nM
Cc1nc(N2C[C@@H]3C[C@H]2CN3)cc(-n2nc(Nc3cnccn3)c3ccccc32)n1 [Example 42, 1-{6-[(1S,4S)-2,5-Diazabicyclo[2.2.1]hept-2-yl]-2-methylpyrimidin-4-yl}-N-pyrazin-2-yl-1H-indazol-3-amine] | 9 nM | 254 nM
C[C@H]1CNCCN1c1cc(-n2nc(Nc3cnccn3)c3ccccc32)ccn1 [Example 50, 1-{2-[(2S)-2-methylpiperazin-1-yl]pyridin-4-yl}-N-pyrazin-2-yl-1H-indazol-3-amine] | 11 nM | 80 nM
COc1ccc2c(Nc3cnccn3)nn(-c3cc(N4C[C@@H]5C[C@H]4CN5)ncn3)c2c1 [Example 56, 1-{6-[(1S,4S)-2,5-diazabicyclo[2.2.1]hept-2-yl]pyrimidin-4-yl}-6-methoxy-N-pyrazin-2-yl-1H-indazol-3-amine] | 15 nM | 179 nM
COc1ccc2c(Nc3cnccn3)nn(-c3ccnc(N4CCCNCC4)c3)c2c1 [Example 62, 1-[2-(1,4-diazepan-1-yl)pyridin-4-yl]-6-methoxy-N-pyrazin-2-yl-1H-indazol-3-amine] | 17 nM | 169 nM
Oc1ccc2c(Nc3cnccn3)nn(-c3cncc(N4C[C@@H]5C[C@H]4CN5)c3)c2c1 [Example 63, 1-{5-[(1S,4S)-2,5-Diazabicyclo[2.2.1]hept-2-yl]pyridin-3-yl}-3-(pyrazin-2-ylamino)-1H-indazol-6-ol] | 11 nM | 363 nM
Cc1ccc2c(Nc3cnccn3)nn(-c3cncc(N4C[C@@H]5C[C@H]4CN5)c3)c2c1 [Example 71, 1-{5-[(1S,4S)-2,5-diazabicyclo[2.2.1]hept-2-yl]pyridin-3-yl}-6-methyl-N-pyrazin-2-yl-1H-indazol-3-amine] | 5 nM | 111 nM
COc1ccc2c(Nc3cnccn3)nn(-c3ccnc(N4CCNC[C@@H]4C)c3)c2c1 [Example 76, 6-Methoxy-1-{2-[(2S)-2-methylpiperazin-1-yl]pyridin-4-yl}-N-pyrazin-2-yl-1H-indazol-3-amine] | 11 nM | 137 nM
Oc1ccc2c(Nc3cnccn3)nn(-c3ccnc(N4CCCNCC4)c3)c2c1 [Example 86, 1-[2-(1,4-diazepan-1-yl)pyridin-4-yl]-3-(pyrazin-2-ylamino)-1H-indazol-6-ol] | 15 nM | 263 nM
Cc1ccnc(Nc2nn(-c3ccnc(N4C[C@@H]5C[C@H]4CN5)c3)c3cc(O)ccc23)c1 [Example 88, 1-{2-[(1S,4S)-2,5-diazabicyclo[2.2.1]hept-2-yl]pyridin-4-yl}-3-[(4-methylpyridin-2-yl)amino]-1H-indazol-6-ol] | 5 nM | 364 nM
COc1ccc2c(Nc3cnccn3)nn(-c3cccc(N4C[C@@H]5C[C@H]4CN5)c3)c2c1 [Example 89, 1-{3-[(1S,4S)-2,5-diazabicyclo[2.2.1]hept-2-yl]phenyl}-6-methoxy-N-pyrazin-2-yl-1H-indazol-3-amine] | 16 nM | 160 nM
